Measured values reported in patent US11339405B2, “Kit and method for producing induced embryonic neural progenitors” (priority 2017, dated 2022).
“Also recorded” adds a separate entry of the source.

Assays:
[1] = system: TTX-sensitive sodium channels; assay type: cell-based, human
[2] = system: FBs infected with virus encoding the 6 or 7TF combinations
HD-iENPs = experiment: γH2AX ICC (DNA damage) in HD-iENPs; assay type: cell-based, human; details: vs vehicle (DMSO)
HD-iENP-derived neurons = experiment: γH2AX ICC (DNA damage) in HD-iENP-derived neurons; assay type: cell-based, human; details: neuronal derivatives of HD-iENPs; vs vehicle (DMSO)
AD-iENP-derived neurons = experiment: pTAU (AT8) ICC in AD-iENP-derived neurons, AD drug testing; assay type: cell-based, human; details: AD-iENP-derived neurons (AD1, APOE4/E4), treated for 2 days at 7 days after cortical differentiation; vs DMSO
Procedure: General neural differentiation was examined using differentiation media [Neurobasal, B27 supplement, 1% NEAA, 2 mM glutamine, 1 mM sodium pyruvate (Invitrogen), 300 μg/ml dbcAMP, 50 μM ascorbic acid (Sigma), 20 ng/ml BDNF, 20 ng/ml GDNF, 50 ng/ml NGF (Peprotech)], while specific neuronal differentiation were examined using cortical neuronal differentiation media, dopaminergic neuronal differentiation media, and PNS neuronal differentiation media [cortical neuronal differentiation media: Neurobasal, N2 supplement, B27 supplement (Invitrogen), 100 ng/ml SHH, 125 ng/ml Noggin, 250 ng/ml DKK1, 10 ng/ml BDNF, 10 ng/ml bFGF (R&D), 2 μM XAV939, 100 nM LDN93189, 10 μM SB431542, 200 μM ascorbic acid, 200 μM dbcAMP (Sigma); dopaminergic neuronal differentiation media: DMEM/F12, N2 supplement (Invitrogen), 20 ng/ml BDNF, 200 ng/ml SHH, 100 ng/ml FGF8P (R&D), 200 μM ascorbic acid (Sigma); PNS neuronal differentiation media: DMEM/F12, N2 supplement (Invitrogen), 3 μM CHIR99021, 10 μM SU5402, 10 μM DAPT, 200 μM dbcAMP]. For AD drug testing, AD- and control-iENPs were subjected to cortical differentiation. At 7 days after differentiation, cells were treated with SB415286, 1-Azakenpaullone (Selleckchem), or DMSO (Sigma) for 2 days. […]
The ICC procedure was performed as previously described. […] Signals were recorded using a Zeiss microscope and Spot software. […]

Compound: NC1=N[C@H](O)[C@H]2[C@H]3O[C@]4(O)O[C@@H]([C@@H](O)[C@@]2(N1)[C@@H]4O)[C@]3(O)CO [TTX, tetrodotoxin]
- inward Na+ currents [1]: could be blocked
- sodium channel-mediated inward currents [1]: blocked

Compound: RepSox
- efficiency of iENP-6F generation [2]: significantly improved

Compound: CCNC(=O)[C@H]1O[C@@H](n2cnc3c(N)nc(NCCc4ccc(CCC(=O)O)cc4)nc32)[C@H](O)[C@@H]1O [CGS21680]
- γH2AX expression (DNA damage) (HD-iENPs): significantly decreased; also recorded: decreased DNA damage
- γH2AX expression (DNA damage) (HD-iENP-derived neurons): significantly decreased; also recorded: decreased DNA damage

Compound: O=C1NC(=O)C(c2ccccc2[N+](=O)[O-])=C1Nc1ccc(O)c(Cl)c1 [SB415286]
- pTAU aggregation / pTAU expression (AD-iENP-derived neurons): significantly reduced

Compound: O=C1Cc2c([nH]c3ccc(Br)cc23)-c2ncccc2N1 [1-Aza, 1-Azakenpaullone]
- pTAU aggregation / pTAU expression (AD-iENP-derived neurons): significantly reduced
